Read-outs that look alike come from different tables or passages of the source.
Key:
in vivo = conditions: for concentration at 21 days: goldfish (Carassius auratus), in vivo
Text: Cages were visited weekly, and fish (13/cage) were fed during the visits (20 g/cage). All animal experiments were in accordance with CCAC guidance and approved by the GLLFAS-WSTD Animal Care Committee (Government of Canada). Further details on the caging and preparation of the fish and animal care protocols are provided in Simmons et al.[32]. […] A fourth site, Jordan Harbour (JH), a widening of 20 Mile Creek adjacent to Lake Ontario near Jordan ON, served as a reference site. Mass and fork length were measured and recorded. Plasma collection and storage is described in the SI. Plasma of caged goldfish was divided for proteome, metabolome and PPCP analysis. Due to limited volumes, pooled samples of plasma from 25 individual fish (50 µL/individual) was pooled to yield one sample from at each location for PPCP analysis.
(§1) A total of 20 fish plasma samples from the pooled caged fish (7) and the wild fish (13) along with 12 water samples were selected for analysis. […] A full list of analytes is provided in Supplementary Information. Mass labelled^13C-, or deuterated surrogate internal standards were used for quantification of all analytes via the isotope dilution/surrogate standard quantitation method. Prior to extraction and/or clean-up procedures, aqueous samples were adjusted to pH 2.0, spiked with extraction surrogate standards, then adjusted to pH 4 using tetrasodium ethylenediamine-tetraacetate dihydrate. Plasma samples (2.3–2.5 g) were spiked with extraction surrogate standards, sonicated with 20 mL acetonitrile, then diluted with ultra-pure water to 200 mL. The extracts were cleaned up by solid phase extraction using Oasis HLB cartridges (Waters Ltd. Mississauga ON), filtered, and analyzed by liquid chromatography-electrospray ionization-tandem mass spectrometry (LC/ESI-MS/MS) in positive or negative ionization mode. The analysis of the complete list of analytes (SI Table S1) required a total of five instrumental runs.
(§2) Quality assurance steps included analysis of lab blanks for water and plasma along with matrix recovery spikes. […] Detection limits (DLs) were defined as lowest calibration level adjusted to the maximal sample size or 3 times the signal of the noise in the target channel converted to an equivalent sample, whichever was greater. […] Where analytes were detected in two or more samples of the same species or series of water samples, non-detect values were converted to ½ the DL value for reporting purposes.

[1] = for plasma concentration, CPM-C 01: Cootes carp 01, 2011, male; for plasma concentration, CPM-C 2: Cootes carp 2, Sep 27, 2011, male; for plasma concentration, CPM-C 10: Cootes carp 10, Sep 28, 2011, female; for plasma concentration, CPM-C 20: Cootes carp 20, 2011, male; for plasma concentration, JH-C 54: Jordan Harbour carp 54, Nov 7, 2011, male; for plasma concentration, JH-C 73: Jordan Harbour carp 73, Nov 7, 2011, female; for plasma concentration, JH-C 74: Jordan Harbour carp 74, Nov 7, 2011, male; for plasma concentration, JH-C 75: Jordan Harbour carp 75, Nov 7, 2011, female; for plasma concentration, JH-C 78: Jordan Harbour carp 78, Nov 7, 2011, male; for plasma concentration, JH-C 82: Jordan Harbour carp 82, Nov 7, 2011, female
Protocol: (§3) Plasma from 9 individual male fish (500 µL/individual) was pooled to yield 3 samples for PPCP analysis. […] Plasma from 6 individual carp (2.3–3.5 g) from each location was selected for PPCP analysis. […] Plasma samples were frozen (−80 °C) until analysis.
as §1, §2

[2] = Jordan Harbour brown bullhead, wet weight
Protocol: as §3, §1

[3] = Plasma bioaccumulation factor (BAFP), goldfish; assay type: in vivo, goldfish (Carassius auratus); conditions: for BAFP, CPM2 goldfish caged: water sample of August 2012
Protocol: (§4) Bioaccumulation factor (BAFP) was calculated as concentration in fish plasma (ng/g × 1000) divided by concentration in water (ng/L). Two widely used modeling approaches for predicting organic contaminant bioaccumulation were assessed: the BCF-BAF model for whole body BAFs[53] and the fish-plasma concentration calculation of Huggett et al.[35] modified by Berninger et al.[54]. The latter involves estimating an octanol-water partition coefficient (Kow) adjusted for fraction ionized (log D), using the pKa value to adjust log Kow[54] taking into account the pH of CPM waters. Further information on the calculation of log D, blood-water partitioning (PBW), and plasma concentrations (FPC) is given in the SI.

[4] = Plasma bioaccumulation factor (BAFP), carp; assay type: in vivo, carp (Cyprinus carpio)
Protocol: as §4

[5] = parameters: method as in US EPA Chemistry Dashboard; conditions: ref US EPA Chemistry Dashboard; cited from earlier work
[6] = cited from earlier work
[7] = cited from earlier work; for Salmon (whole body) concentration: Table S7, ref Meador et al. (2016); for whole fish concentration, salmon: ref Meador et al. 18
[8] = cited from earlier work; for Sculpin (whole body) concentration: Table S7, ref Meador et al. (2016); for whole fish concentration, sculpin: ref Meador et al. 18
[9] = cited from earlier work; for BAFP: treated WWTP effluent from two Swedish cities
[10] = cited from earlier work; remark: listed apart in the source
[11] = cited from earlier work; remark: listed apart in the source
[12] = conc in fish plasma/conc in water
[13] = range based on range of plasma concentrations
[14] = male, goldfish (Carassius auratus), in vivo

CCN(CC)C(=O)c1cccc(C)c1 [DEET, N,N-Diethyl-m-toluamide]
plasma concentration, CPM1 caged (in vivo; CPM1, 07-2014, pooled plasma, wet weight): 0.416 ng/g | plasma concentration, CPM2 caged (in vivo; CPM2, 07-2014, pooled plasma, wet weight): 0.41 ng/g | plasma concentration, CPM3 caged (in vivo; CPM3, 07-2014, pooled plasma, wet weight): 0.314 ng/g | caged goldfish plasma, range of concentrations (in vivo; Cootes Paradise Marsh, range): 0.23 to 0.58 ng/g | plasma concentration, JH caged (in vivo; Jordan Harbour reference site, 07-2014, pooled plasma, wet weight): 0.235 ng/g | Cootes carp plasma, range of concentrations ([1]; Cootes Paradise Marsh, range): 0.19 to 1.15 ng/g | wild goldfish plasma, range of concentrations ([1]; Cootes Paradise Marsh, range): 0.31 to 0.42 ng/g | plasma concentration, CPM-C 01 ([1]; wet weight): 0.194 ng/g | plasma concentration, CPM-C 2 ([1]; wet weight): 1.09 ng/g | plasma concentration, CPM-C 10 ([1]; wet weight): 1.15 ng/g | plasma concentration, CPM-C 13 ([1]; Cootes carp 13, Sep 28, 2011, female, wet weight): 1.1 ng/g | plasma concentration, CPM-C 20 ([1]; wet weight): 0.35 ng/g | plasma concentration, CPM-C 36 ([1]; Cootes carp 36, Oct 3, 2011, female, wet weight): 0.743 ng/g | plasma concentration, JH-C 54 ([1]; wet weight): 0.331 ng/g | plasma concentration, JH-C 73 ([1]; wet weight): 0.083 ng/g | plasma concentration, JH-C 74 ([1]; wet weight): 0.494 ng/g | plasma concentration, JH-C 75 ([1]; wet weight): 0.914 ng/g | plasma concentration, JH-C 78 ([1]; wet weight): 1.09 ng/g | plasma concentration, JH-C 82 ([1]; wet weight): 0.865 ng/g | plasma concentration, fold higher in carp plasma than in goldfish ([1]; Jordan Harbour, carp vs caged goldfish): about 2 fold | Carp plasma concentration, this study (range) ([1]; Table S7): 0.19 to 1.15 ng/g | Goldfish plasma concentration, this study (range) ([1]; Table S7): 0.23 to 0.58 ng/g | plasma concentration, carp, this study (mean) ([1]; Table S8): 0.77 ng/g wet weight or ng/mL for plasma | plasma concentration, goldfish, this study (mean) ([1]; Table S8): 0.46 ng/g wet weight or ng/mL for plasma | plasma concentration, CPM wild-01 ([1]; wild goldfish sample 01, 2012, wet weight): 0.234 ng/g | plasma concentration, CPM wild-02 ([1]; wild goldfish sample 02, 2012, wet weight): 0.584 ng/g | plasma concentration, CPM wild-03 ([1]; wild goldfish sample 03, 2012, wet weight): 0.56 ng/g | plasma concentration, JH-BB [2]: 2.59 ng/g | BAFP, CPM1 goldfish caged [3]: 4 L/kg | BAFP, CPM2 goldfish caged [3]: 4 L/kg | BAFP, CPM3 goldfish caged ([3]; CPM3): 4 L/kg | BAFP, JH goldfish caged ([3]; Jordan Harbour): 9 L/kg | BAFP at CPM3, wild goldfish, average [3, 12]: 9 L/kg | BAFP at CPM3, wild goldfish, range [3, 13]: 4 to 11 L/kg | BAFP at JH, carp, average ([4]; Jordan Harbour): 32 L/kg | BAFP at JH, carp, range ([4]; Jordan Harbour): 4 to 51 L/kg | BAFP at CPM3, carp, average [4, 12]: 15 L/kg | BAFP at CPM3, carp, range [4, 13]: 4 to 22 L/kg | log Kow [5]: 2.18 | BAFP in carp plasma, median [6]: < 6.2 | Salmon (whole body) concentration [7]: 0.39 to 1.6 ng/g | whole fish concentration, salmon [7]: 0.39 - 1.6 ng/g wet weight or ng/mL for plasma | Sculpin (whole body) concentration [8]: 0.41 to 2.2 ng/g | whole fish concentration, sculpin [8]: 0.41 - 2.2 ng/g wet weight or ng/mL for plasma

CC(C)Cc1ccc(C(C)C(=O)O)cc1 (stereo not drawn) [Ibuprofen]
plasma concentration, CPM-C 01 ([1]; wet weight): < 3.16 ng/g | plasma concentration, CPM-C 2 ([1]; wet weight): < 4.31 ng/g | plasma concentration, CPM-C 10 ([1]; wet weight): < 4.53 ng/g | plasma concentration, CPM-C 20 ([1]; wet weight): < 3.23 ng/g | plasma concentration, JH-C 54 ([1]; wet weight): < 3.18 ng/g | plasma concentration, JH-C 73 ([1]; wet weight): < 3.09 ng/g | plasma concentration, JH-C 74 ([1]; wet weight): < 3.19 ng/g | plasma concentration, JH-C 75 ([1]; wet weight): < 4.52 ng/g | plasma concentration, JH-C 78 ([1]; wet weight): < 3.13 ng/g | plasma concentration, JH-C 82 ([1]; wet weight): < 3.01 ng/g | plasma concentration, JH-BB [2]: < 5.7 ng/g | BAFP [9]: 21–58

O=C1Nc2ccc(Cl)cc2C(c2ccccc2)=NC1O (stereo not drawn) [Oxazepam]
BAFP [9]: 0.7–3.6

CN[C@H]1CC[C@@H](c2ccc(Cl)c(Cl)c2)c2ccccc21 [Sertraline]
BAFP, CPM1 goldfish caged [3]: 50 L/kg | BAFP, CPM2 goldfish caged [3]: 27 L/kg | log Kow [5]: 5.29 | BAFP in carp plasma, median [6]: 8.9 | plasma concentration, crucian carp & common carp ([6]; mean ± SD, ref Tanoue et al.16): 0.21±0.18 ng/g wet weight or ng/mL for plasma | Therapeutic "normal" blood-plasma/serum concentration ([10]; human, converted from µg/mL, ref Schulz et al.[56]): 50 to 250 ng/mL | toxic dose (toxic blood-plasma/serum concentration) ([10]; human, ref Schulz et al.[56]): 290 ng/mL | Cmax (human therapeutic dose) ([10]; ref Berninger & Brooks[60]): 290 ng/mL | plasma concentration, rainbow trout ([9]; ref Fick et al. 12): 0.30-2.4 ng/g wet weight or ng/mL for plasma | Salmon (whole body) concentration [7]: 17 ng/g | whole fish concentration, salmon [7]: 17 ng/g wet weight or ng/mL for plasma | Sculpin (whole body) concentration [8]: 0.2 ng/g | whole fish concentration, sculpin [8]: 0.2 ng/g wet weight or ng/mL for plasma

Cc1cc(C)nc(NS(=O)(=O)c2ccc(N)cc2)n1 [Sulfamethazine]
concentration at 21 days (in vivo; caged goldfish plasma, range of concentrations): 0.06 to 0.17 ng/g | concentration at 21 days (in vivo; plasma concentration, CPM1 caged): < 0.244 ng/g | concentration at 21 days (in vivo; plasma concentration, CPM2 caged): < 0.165 ng/g | concentration at 21 days (in vivo; plasma concentration, CPM3 caged): < 0.123 ng/g | concentration at 21 days (in vivo; plasma concentration, JH caged): < 0.12 ng/g | plasma concentration, carp, this study (mean) ([1]; in vivo): < mdl | plasma concentration, CPM wild-01 [1, 14]: 0.166 ng/g | plasma concentration, CPM wild-02 [1, 14]: 0.084 ng/g | plasma concentration, CPM wild-03 [1, 14]: 0.066 ng/g | plasma concentration, goldfish, this study (mean) [1, 14]: 0.11 ng/g wet weight or ng/mL for plasma | log BAFP, goldfish and carp in this study ([3]; goldfish and carp): 1.53–2.73 | log Kow [5]: 0.19 | plasma concentration, carp and tilapia ([11]; ref Zhao et al. 15): 6.47 ng/g wet weight or ng/mL for plasma | log BAFP ([11]; tilapia and carp species in southern China): 1.92–4.18

From paper PMC5717258, “Bioaccumulation of pharmaceuticals and personal care product chemicals in fish exposed to wastewater effluent in an urban wetland” (Scientific Reports, 2017)
